PubChem BioAssay (NCI)
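Exposure lasted 48 hours, with cells grown in 96-well plates and compounds tested at five concentrations. GI50: concentration for 50% inhibition of growth. Definition used: TGI = concentration required for complete inhibition of growth.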

Key:
Assay in all cases: NCI anticancer screen, dose series, 48 h
[1] = tested on: 786-0 renal
[2] = tested on: HCT-116 colon
[3] = tested on: HCT-15 colon
[4] = tested on: HOP-92 NSCLC
[5] = tested on: IGROV1 ovarian
[6] = tested on: MALME-3M melanoma
[7] = tested on: RXF 393 renal
[8] = tested on: SF-539 CNS
[9] = tested on: SK-MEL-2 melanoma
[10] = tested on: U251 CNS

Structure (SMILES)	GI50 [1]	TGI [1]	GI50 [2]	TGI [2]	GI50 [3]	TGI [3]	GI50 [4]	TGI [4]	GI50 [5]	TGI [5]	GI50 [6]	TGI [6]	GI50 [7]	TGI [7]	GI50 [8]	TGI [8]	GI50 [9]	TGI [9]	GI50 [10]	TGI [10]
COc1ccc(C2=C(c3ccc(OC)c(OC)c3)C(=O)N3CCCC3C2)cc1 (stereo not given)	27.6 µM	> 100 µM	9.64 µM	> 100 µM	5.18 µM	> 100 µM	41.3 µM	> 100 µM	13.3 µM	> 100 µM	> 71.4 µM	> 100 µM	11.5 µM	> 38.2 µM	12 µM	> 100 µM	> 71.1 µM	> 100 µM	7.47 µM	> 100 µM
CN(C)C(=O)c1ccc([N+](=O)[O-])cc1	–	> 100 µM	–	> 100 µM	–	> 100 µM	–	> 100 µM	–	> 100 µM	–	> 100 µM	–	> 100 µM	–	> 100 µM	–	> 100 µM	–	> 100 µM
O=C(O)C(CS)NCc1c2ccccc2nc2ccccc12 (stereo not given)	–	> 100 µM	–	> 100 µM	–	> 100 µM	–	88.9 µM	–	> 100 µM	–	> 100 µM	–	98.4 µM	–	> 100 µM	–	> 100 µM	–	> 100 µM
COc1cc(/C=C/C(=O)c2ccc(F)cc2)ccc1OCCCN1CCN(CC(=O)Nc2ccc(Cl)cc2C(=O)c2ccccc2Cl)CC1	3.86 µM	15.2 µM	2.23 µM	11.1 µM	4.09 µM	19.5 µM	1.38 µM	10.3 µM	6.17 µM	41.6 µM	4.23 µM	15.7 µM	2.84 µM	15.8 µM	10.2 µM	23.3 µM	12.6 µM	32.1 µM	5.01 µM	17.3 µM
CC(=O)O[C@H]1CCC2[C@@H]3CCC4c5nonc5CC[C@]4(C)C3CC[C@@]21C (stereo not given in full)	–	> 10 µM	> 100 µM	> 100 µM	–	> 10 µM	> 100 µM	> 100 µM	> 100 µM	> 100 µM	> 100 µM	> 100 µM	–	> 10 µM	–	> 10 µM	> 100 µM	> 100 µM	–	> 10 µM
O=C(N/C(=C\c1ccc(/C=C(\NC(=O)c2ccccc2)c2nc3ccccc3[nH]2)cc1)c1nc2ccccc2[nH]1)c1ccccc1	–	> 100 µM	–	> 100 µM	–	> 100 µM	–	> 100 µM	–	> 100 µM	–	> 100 µM	–	> 100 µM	–	> 100 µM	–	> 100 µM	–	> 100 µM
Cn1cccc1-c1cc(-c2ccc(Br)cc2)[nH]c(=O)c1C#N	> 100 µM	> 100 µM	> 100 µM	> 100 µM	> 100 µM	> 100 µM	27.8 µM	> 100 µM	77.2 µM	> 100 µM	> 100 µM	> 100 µM	> 100 µM	> 100 µM	89.3 µM	> 100 µM	> 100 µM	> 100 µM	> 100 µM	> 100 µM
Cc1nn(-c2ccc(Cl)cc2)c2nc3c(nc12)C(=O)C(=O)c1ccccc1-3	5.39 µM	25.9 µM	7.42 µM	32.8 µM	3.4 µM	16.8 µM	0.18 µM	30.8 µM	5.46 µM	47.3 µM	1.43 µM	3.86 µM	19.7 µM	64.6 µM	3.14 µM	9.3 µM	4.71 µM	16.2 µM	3.21 µM	10.1 µM
CN(C)CC1CCC2=C(C1=O)C(c1ccc(Cl)c(Cl)c1)C1=C(CCC(CN(C)C)C1=O)O2 (stereo not given)	1.58 µM	2.98 µM	10.4 µM	23.4 µM	8.75 µM	29.2 µM	11.3 µM	25.5 µM	4.54 µM	8.97 µM	14.9 µM	29.5 µM	9.18 µM	22.5 µM	6.01 µM	18.2 µM	16.6 µM	30.7 µM	11.7 µM	23.9 µM
COC(=N)c1c(N)[n+]([O-])c2ccc(F)cc2[n+]1[O-]	> 100 µM	> 100 µM	> 100 µM	> 100 µM	> 100 µM	> 100 µM	78.8 µM	> 100 µM	18.1 µM	86.5 µM	66.3 µM	> 100 µM	> 100 µM	> 100 µM	> 100 µM	> 100 µM	> 100 µM	> 100 µM	> 100 µM	> 100 µM
O=C1/C(=N\O)S(=O)(=O)c2ccccc21	–	> 100 µM	–	> 100 µM	–	> 100 µM	–	> 100 µM	–	> 100 µM	–	> 100 µM	–	> 100 µM	–	> 100 µM	–	> 100 µM	–	> 100 µM
N#CSCc1ccc(Cl)c(CSC#N)c1	0.301 µM	17.4 µM	0.0379 µM	14.8 µM	0.143 µM	25.1 µM	0.25 µM	6.51 µM	5.9 µM	49.8 µM	9.8 µM	37.8 µM	0.559 µM	12.3 µM	0.117 µM	16.6 µM	16.2 µM	73 µM	9.12 µM	28.4 µM
C[C@]12CC[C@@H]3c4ccc(O)cc4CC[C@H]3[C@@H]1Cc1cnc(N)nc12	23.3 µM	59.3 µM	23.6 µM	69.2 µM	16.5 µM	39.1 µM	11.7 µM	31.6 µM	35.1 µM	> 100 µM	15.6 µM	29.8 µM	11.5 µM	31.3 µM	14.8 µM	30.5 µM	26.9 µM	> 100 µM	17.9 µM	41.6 µM
COc1ccc(/C=C(\C(=O)NCc2cccnc2)S(=O)(=O)c2ccccc2)cc1OC	2.86 µM	8.92 µM	2.11 µM	6.12 µM	2.85 µM	11.7 µM	2.59 µM	7.33 µM	2.22 µM	11.3 µM	3.06 µM	11.9 µM	2.08 µM	4.26 µM	2.49 µM	6.74 µM	3.01 µM	12.7 µM	3.09 µM	14 µM
COc1ccc(CC(=O)c2ccc(O)cc2O)cc1	> 100 µM	> 100 µM	> 100 µM	> 100 µM	> 100 µM	> 100 µM	12.3 µM	62.1 µM	53.4 µM	> 100 µM	45.2 µM	> 100 µM	> 100 µM	> 100 µM	> 100 µM	> 100 µM	> 100 µM	> 100 µM	> 100 µM	> 100 µM
COc1cc([N+](=O)[O-])c(OC)cc1-c1nc2sccn2c1/C=N/N=C(N)N	18 µM	49.6 µM	21.7 µM	94.4 µM	26.3 µM	72.4 µM	19.3 µM	45.4 µM	10.4 µM	50 µM	11 µM	40.7 µM	50.1 µM	> 100 µM	12 µM	46.5 µM	30.9 µM	> 100 µM	3.66 µM	15 µM
O=C(NC(=Nc1ccccc1)SCCSC(=Nc1ccccc1)NC(=O)c1cccs1)c1cccs1	–	> 100 µM	–	> 100 µM	–	> 100 µM	–	46.1 µM	–	> 100 µM	–	> 100 µM	–	68.9 µM	–	> 100 µM	–	> 100 µM	–	> 100 µM
O1[As]2O[As]3O[As]1O[As](O2)O3	0.528 µM	1.82 µM	1.27 µM	2.8 µM	1.08 µM	4.79 µM	0.238 µM	0.897 µM	0.457 µM	2.7 µM	0.477 µM	2.08 µM	0.502 µM	1.85 µM	0.347 µM	1.71 µM	1.84 µM	16.7 µM	0.294 µM	1.25 µM
CN1CCc2[nH]nc(-c3n[nH]c4c3CN(C)CC4)c2C1	–	> 100 µM	–	> 100 µM	–	> 100 µM	–	> 100 µM	–	> 100 µM	–	> 100 µM	–	> 100 µM	–	> 100 µM	–	> 100 µM	–	> 100 µM
CCN1C(=O)N(CC)C2C1NN=c1s/c(=C\c3ccccn3)c(=O)n12 (stereo not given)	4.7 µM	> 100 µM	0.825 µM	> 100 µM	0.558 µM	> 100 µM	2.37 µM	> 100 µM	2.02 µM	> 100 µM	1.63 µM	> 100 µM	1.66 µM	5.86 µM	1.74 µM	7.9 µM	2.64 µM	> 100 µM	2.96 µM	> 100 µM
